Experimental data from PubChem BioAssay AID248 (DTP/NCI, 2004).
Where “and” joins values, the source holds several entries; their conditions need not be identical. Equal entries are not always repeated. Toxic doses and inconclusive results are not listed. Cut-off read from the data, not from the text of the source: active = T/C of 150% or more; inactive = T/C below 125%.

System: L1210 leukemia ip in BDF1 mice, survival T/C
Test: NCI In Vivo Anticancer Drug Screen. Data for tumor model L1210 Leukemia (intraperitoneal) in B6D2F1 (BDF1) mice
Conditions: endpoint: mean survival time, higher = longer survival
In short: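 Transplantable tumor model; survival measured in treated vs vehicle control mice. Value = treated/control.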

[1] = dose: 50.0 mg/kg/injection, schedule: Q01DX001 (ip), vehicle: Klucel (hydroxypropylcellulose) (HPC)
[2] = dose: 100.0 mg/kg/injection, schedule: Q01DX001 (ip), vehicle: Klucel (hydroxypropylcellulose) (HPC)
[3] = dose: 200.0 mg/kg/injection, schedule: Q01DX001 (ip), vehicle: Klucel (hydroxypropylcellulose) (HPC)
[4] = dose: 50.0 mg/kg/injection, schedule: Q04DX002 (ip), vehicle: saline with Tween-80
[5] = dose: 100.0 mg/kg/injection, schedule: Q04DX002 (ip), vehicle: saline with Tween-80
[6] = dose: 200.0 mg/kg/injection, schedule: Q04DX002 (ip), vehicle: saline with Tween-80
[7] = dose: 400.0 mg/kg/injection, schedule: Q04DX002 (ip), vehicle: saline with Tween-80
[8] = dose: 100.0 mg/kg/injection, schedule: Q01DX009 (ip), vehicle: Klucel (hydroxypropylcellulose) (HPC)
[9] = dose: 100.0 mg/kg/injection, schedule: Q04DX003 (ip), vehicle: saline
[10] = dose: 200.0 mg/kg/injection, schedule: Q01DX009 (ip), vehicle: Klucel (hydroxypropylcellulose) (HPC)
[11] = dose: 200.0 mg/kg/injection, schedule: Q04DX003 (ip), vehicle: saline
[12] = dose: 400.0 mg/kg/injection, schedule: Q01DX009 (ip), vehicle: Klucel (hydroxypropylcellulose) (HPC)
[13] = dose: 400.0 mg/kg/injection, schedule: Q04DX003 (ip), vehicle: saline
[14] = dose: 100.0 mg/kg/injection, schedule: Q01DX009 (ip), vehicle: saline with Tween-80
[15] = dose: 200.0 mg/kg/injection, schedule: Q01DX009 (ip), vehicle: saline with Tween-80
[16] = dose: 100.0 mg/kg/injection, schedule: Q04DX003 (ip), vehicle: Klucel (hydroxypropylcellulose) (HPC)
[17] = dose: 200.0 mg/kg/injection, schedule: Q04DX003 (ip), vehicle: Klucel (hydroxypropylcellulose) (HPC)
[18] = dose: 400.0 mg/kg/injection, schedule: Q04DX003 (ip), vehicle: Klucel (hydroxypropylcellulose) (HPC)
[19] = dose: 50.0 mg/kg/injection, schedule: Q01DX009 (ip), vehicle: Klucel (hydroxypropylcellulose) (HPC)
[20] = dose: 100.0 mg/kg/injection, schedule: Q04DX003 (ip), vehicle: saline with Tween-80
[21] = dose: 200.0 mg/kg/injection, schedule: Q04DX003 (ip), vehicle: saline with Tween-80
[22] = dose: 400.0 mg/kg/injection, schedule: Q04DX003 (ip), vehicle: saline with Tween-80
[23] = dose: 100.0 mg/kg/injection, schedule: Q01DX001 (ip), vehicle: saline
[24] = dose: 200.0 mg/kg/injection, schedule: Q01DX001 (ip), vehicle: saline
[25] = dose: 400.0 mg/kg/injection, schedule: Q01DX001 (ip), vehicle: saline

Measured: T/C

O=C(CCl)NCc1ccc([N+](=O)[O-])cc1
inactive: [1] 100 % of control | [2] 103 % of control | [3] 101 % of control

Oc1ccccc1-c1nc2ccccc2o1
inactive: [4] 98 % of control | [5] 95 % of control | [6] 92 % of control

CCC(C)Nc1ccc(NS(=O)(=O)CCl)cc1 (configuration not stated)
inactive: dose: 25.0 mg/kg/injection, schedule: Q04DX002 (ip), vehicle: saline with Tween-80 97 % of control | [4] 106 % of control | [5] 100 % of control

Cc1ccc(S(=O)(=O)OCC2OC(n3cnc4c(=O)[nH]cnc43)C3OC(C)(C)OC23)cc1 (configuration not stated)
inactive: dose: 100.0 mg/kg/injection, schedule: Q01DX005 (ip), vehicle: saline 103 % of control | dose: 200.0 mg/kg/injection, schedule: Q01DX005 (ip), vehicle: saline 103 % of control

CC1=C(Cl)C(=O)C(Cl)=C(C)C1=O
inactive: dose: 5.5 mg/kg/injection, schedule: Q01DX Z (ip), vehicle: methylcellulose (MC) 93 % of control | dose: 8.3 mg/kg/injection, schedule: Q01DX Z (ip), vehicle: methylcellulose (MC) 107 % of control | dose: 12.5 mg/kg/injection, schedule: Q01DX Z (ip), vehicle: methylcellulose (MC) 102 % of control

Br/C=C/c1ccccc1
inactive: [5] 94 % of control | [6] 97 % of control | [7] 100 % of control

Cc1c(Cl)cccc1NC(=O)c1ccccc1Cl
inactive: [8] 94 % of control | [9] 122 % of control | [10] 94 % of control | [11] 108 % of control | [12] 95 % of control | [13] 108 % of control

O=C(/C=C\c1ccccc1[N+](=O)[O-])C(=O)/C=C/c1ccccc1[N+](=O)[O-]
inactive: [2] 93 % of control | [3] 92 % of control | dose: 400.0 mg/kg/injection, schedule: Q01DX001 (ip), vehicle: Klucel (hydroxypropylcellulose) (HPC) 88 % of control

CCC(=O)/C=C/C1C(C)=CCCC1(C)C (configuration not stated)
inactive: [14] 86 % of control | [9] 100 % of control | [15] 90 % of control | [11] 102 % of control | [13] 100 % of control

CCC(C(=O)O)C(O)(CC(=O)O)C(=O)O (configuration not stated)
inactive: [9] 98 % of control | [11] 101 % of control | [13] 95 % of control

CNC(=O)Oc1coc(CCl)cc1=O
inactive: dose: 37.5 mg/kg/injection, schedule: Q01DX001 (ip), vehicle: other 106 % of control | dose: 75.0 mg/kg/injection, schedule: Q01DX001 (ip), vehicle: other 101 % of control | dose: 150.0 mg/kg/injection, schedule: Q01DX001 (ip), vehicle: other 104 % of control

CS(=O)(=O)N(c1nc2ccccc2s1)S(C)(=O)=O
inactive: dose: 100.0 mg/kg/injection, schedule: Q04DX003 (ip), vehicle: carboxymethylcellulose (CMC) 95 % of control | dose: 200.0 mg/kg/injection, schedule: Q04DX003 (ip), vehicle: carboxymethylcellulose (CMC) 93 % of control | dose: 400.0 mg/kg/injection, schedule: Q04DX003 (ip), vehicle: carboxymethylcellulose (CMC) 95 % of control

N#CCC1=Cc2ccccc2CC1
inactive: dose: 6.25 mg/kg/injection, schedule: Q01DX005 (ip), vehicle: saline 109 % of control | dose: 12.5 mg/kg/injection, schedule: Q01DX005 (ip), vehicle: saline 102 % of control | dose: 25.0 mg/kg/injection, schedule: Q01DX005 (ip), vehicle: saline 102 % of control | dose: 50.0 mg/kg/injection, schedule: Q01DX005 (ip), vehicle: saline 106 % of control and 107 % of control

CCOC12c3cc(OC)ccc3N(S(=O)(=O)c3ccc(C)cc3)CC1C2(Br)Br (configuration not stated)
inactive: [8] 97 % of control | [16] 100 % of control | [10] 87 % of control | [17] 100 % of control | [12] 94 % of control | [18] 91 % of control

O=C(Nc1ccc(Br)cc1)Oc1ccc(-c2ccccc2)cc1
inactive: [19] 95 % of control | [8] 95 % of control and 91 % of control | [10] 90 % of control | [12] 86 % of control and 87 % of control

CCOC(=O)c1cnc(SC)nc1Nc1ccc([N+](=O)[O-])cc1
inactive: dose: 25.0 mg/kg/injection, schedule: Q01DX001 (ip), vehicle: Klucel (hydroxypropylcellulose) (HPC) 91 % of control | [1] 89 % of control | [2] 90 % of control

CSc1ccc(NC(=O)C(C)Oc2ccccc2)cc1 (configuration not stated)
inactive: dose: 50.0 mg/kg/injection, schedule: Q01DX001 (ip), vehicle: saline with Tween-80 95 % of control | dose: 100.0 mg/kg/injection, schedule: Q01DX001 (ip), vehicle: saline with Tween-80 87 % of control and 92 % of control | [14] 97 % of control and 102 % of control | [5] 94 % of control and 96 % of control | dose: 200.0 mg/kg/injection, schedule: Q01DX001 (ip), vehicle: saline with Tween-80 87 % of control | [15] 93 % of control and 102 % of control | [6] 96 % of control and 105 % of control | dose: 400.0 mg/kg/injection, schedule: Q01DX001 (ip), vehicle: saline with Tween-80 87 % of control and 90 % of control | dose: 400.0 mg/kg/injection, schedule: Q01DX009 (ip), vehicle: saline with Tween-80 95 % of control and 98 % of control | [7] 96 % of control and 101 % of control

CCCOC(=O)COc1ccccc1
inactive: [20] 96 % of control | [21] 96 % of control | [22] 93 % of control

CC1(C)CC(=O)N(c2ccccc2)N1
inactive: [16] 94 % of control | [17] 103 % of control | [18] 107 % of control

NCCCCCc1ccccc1
inactive: dose: 50.0 mg/kg/injection, schedule: Q04DX003 (ip), vehicle: saline 109 % of control

Nc1ncnc2c1ncn2C1CCC(CO)O1 (configuration not stated)
inactive: [23] 103 % of control | [24] 115 % of control | [25] 105 % of control

CCC(Cc1c[nH]c2ccccc12)[N+](=O)[O-] (configuration not stated)
inactive: [8] 104 % of control | [10] 111 % of control | [12] 113 % of control

O=c1oc(-c2ccccc2)nc2c(Cl)ccc(Cl)c12
inactive: dose: 25.0 mg/kg/injection, schedule: Q01DX009 (ip), vehicle: Klucel (hydroxypropylcellulose) (HPC) 110 % of control | [19] 105 % of control | dose: 75.0 mg/kg/injection, schedule: Q01DX009 (ip), vehicle: Klucel (hydroxypropylcellulose) (HPC) 102 % of control

COC1(OC)CCP(=S)(c2ccccc2)CC1C#N (configuration not stated)
inactive: [20] 100 % of control | [21] 101 % of control | [22] 92 % of control

Cc1c(CC=C(c2ccccc2)c2ccccc2)cccc1C[N+](C)(C)C
inactive: dose: 5.0 mg/kg/injection, schedule: Q01DX001 (ip), vehicle: carboxymethylcellulose (CMC) 101 % of control | dose: 10.0 mg/kg/injection, schedule: Q01DX001 (ip), vehicle: carboxymethylcellulose (CMC) 106 % of control | dose: 20.0 mg/kg/injection, schedule: Q01DX001 (ip), vehicle: carboxymethylcellulose (CMC) 98 % of control | dose: 40.0 mg/kg/injection, schedule: Q01DX001 (ip), vehicle: carboxymethylcellulose (CMC) 90 % of control | dose: 80.0 mg/kg/injection, schedule: Q01DX001 (ip), vehicle: carboxymethylcellulose (CMC) 90 % of control | dose: 100.0 mg/kg/injection, schedule: Q01DX001 (ip), vehicle: carboxymethylcellulose (CMC) 93 % of control

COc1ccc(-c2cnc(C(N)=O)c(=O)[nH]2)cc1
inactive: [20] 88 % of control | [21] 95 % of control | [22] 91 % of control

Cc1cccc(OCC(O)CN2CCCCC2)c1 (configuration not stated)
inactive: dose: 25.0 mg/kg/injection, schedule: Q01DX009 (ip), vehicle: saline 94 % of control | dose: 50.0 mg/kg/injection, schedule: Q01DX009 (ip), vehicle: saline 102 % of control and 105 % of control | dose: 100.0 mg/kg/injection, schedule: Q01DX009 (ip), vehicle: saline 120 % of control

COc1cc2c(cc1OC)C(=O)C(c1[nH]c3cc(OC)c(OC)cc3c1O)=N2
inactive: dose: 50.0 mg/kg/injection, schedule: Q01DX001 (ip), vehicle: saline 98 % of control | [23] 98 % of control | [24] 96 % of control | [25] 96 % of control
